We go through two molecules from PMC3376217 (2012).

Broadly, the IC50 is the midpoint of a concentration-inhibition curve. A low value points to greater potency in that assay.

Where two headings read alike, the source gives them in different places.

Experiment [1] deals with T1, TOR2 (Saccharomyces cerevisiae, UniProt P32600). As to the kind of experiment: IP radiometric kinase assay on PHAS-I. It is filed as biochemical.
Experiment [2] concerns the target T1, TOR2. As to the kind of experiment: IP radiometric kinase assay on PHAS-I. It is filed as biochemical. The source holds these as a separate data set.

As to `Nc1ccc(-c2ccc3ncc4ccc(=O)n(-c5ccc(F)c(C(F)(F)F)c5)c4c3c2)cn1` [QL-IX-55], in experiment [1], the concentration for half-maximal inhibition (IC50) is roughly 50 nM. `CCC(=O)N1CCN(c2ccc(-n3c(=O)ccc4cnc5ccc(-c6cnc7ccccc7c6)cc5c43)cc2C(F)(F)F)CC1` [Torin1] showed an IC50 in experiment [2] of 250 to 500 nM.
